One assay deals with Phytophthora infestans. Put plainly: microbe, parasite or virus in culture. The format is cell-based. The note with it: 168 h, read-out: Fungal growth at 31 ppm (%) PHYTIN.
The next assay concerns Fusarium culmorum. The experiment in a line: microbe, parasite or virus in culture. It is filed as cell-based. The note with it: 168 h.

This passage reports activity results from patent publication EP3970494A1 (priority 2020, dated 2022).

Each structure is given as a SMILES string.

For the compound `CNC(=O)/C(=N/OC)c1cccc(C)c1CO/N=C(\C)c1cc(-c2ccccc2)on1` [Example 23], the activity at 31 ppm in the assay on Phytophthora infestans was found to be 1%; in the assay with Fusarium culmorum, 5%.
In the same order, the values of `CNC(=O)/C(=N/OC)c1cccc(C)c1CO/N=C(\C)c1cncc(C(F)(F)F)n1` [Example 89, (2E)-2-Methoxyimino-N-methyl-2-[3-methyl-2-[[(E)-1-[6-(trifluoromethyl)pyrazin-2-yl]ethylideneamino]oxymethyl]phenyl]acetamide] are 0% and 13%.
As to `CO/N=C(/C(=O)OC)c1cccc(C)c1CO/N=C(\C)c1ncc(C(F)(F)F)s1` [Example 123, Methyl (2E)-2-methoxyimino-2-[3-methyl-2-[[(E)-1-[5-(trifluoromethyl)thiazol-2-yl]-ethylideneamino]oxymethyl]phenyl]acetate], in the assay with Fusarium culmorum, the activity at 31 ppm was determined as 17%.
Consider `CNC(=O)/C(=N/OC)c1cccc(C)c1CO/N=C(\C)c1cc(-c2cccc(C(F)(F)F)c2)on1` [Example 22, (2E)-2-Methoxyimino-N-methyl-2-[3-methyl-2-[[(E)-1-[5-[3-(trifluoromethyl)phenyl]-isoxazol-3-yl]ethylideneamino]oxymethyl]phenyl]acetamide], for which the activity at 31 ppm in the assay with Phytophthora infestans was found to be 17%.
Turning to `CNC(=O)/C(=N/OC)c1cccc(C)c1CO/N=C(\C)c1cc(C(F)(F)F)c(C#N)cn1` [Example 99], the activity at 31 ppm in the assay with Phytophthora infestans amounted to 20%.
Turning to `CNC(=O)/C(=N/OC)c1cccc(C)c1CO/N=C(/c1nccs1)C1CC1` [Example 110], the activity at 31 ppm in the assay on Phytophthora infestans was 0%.
Compound `CNC(=O)/C(=N/OC)c1cccc(C)c1CO/N=C(\C)c1ncc(C(F)(F)F)s1` [Example 53, (2E)-2-Methoxyimino-N-methyl-2-[3-methyl-2-[[(E)-1-[5-(trifluoromethyl)thiazol-2-yl]ethylideneamino]oxymethyl]phenyl]acetamide] showed an activity at 31 ppm with Fusarium culmorum of 21%.
In the case of `CNC(=O)/C(=N/OC)c1cccc(C)c1CO/N=C(\C)c1cc(-c2ccc(F)cc2)sn1` [Example 12, (2E)-2-[2-[[(E)-1-[5-(4-Fluorophenyl)isothiazol-3-yl]ethylideneamino]oxymethyl]-3-methyl-phenyl]-2-methoxyimino-N-methyl-acetamide], the results for the activity at 31 ppm with Phytophthora infestans and in the assay with Fusarium culmorum were 2% and 11%, respectively.
For the compound `CO/N=C(/C(=O)OC)c1cccc(C)c1CO/N=C(\C)c1cncc(F)c1` [Example 75], the activity at 31 ppm in the assay with Phytophthora infestans amounted to 0%.
With `CNC(=O)/C(=N/OC)c1cccc(C)c1CO/N=C(\C)c1ccc(C#CC2CC2)cn1` [Example 112], the results for the activity at 31 ppm in the assay on Phytophthora infestans and in the assay on Fusarium culmorum were 2% and 21%, respectively.
Regarding `CO/N=C(/C(=O)OC)c1cccc(C)c1CO/N=C(\C)c1cc(C(F)(F)F)nn1C` [Example 117, Methyl (2E)-2-methoxyimino-2-[3-methyl-2-[[(E)-1-[2-methyl-5-(trifluoromethyl)pyrazol-3-yl]ethylideneamino]oxymethyl]phenyl]acetate], the activity at 31 ppm with Fusarium culmorum was 18%.
For the compound `CO/N=C(/C(=O)OC)c1cccc(C)c1CO/N=C(\C)c1cn(C)nc1C(F)F` [Example 49], the results for the activity at 31 ppm in the assay with Phytophthora infestans and in the assay with Fusarium culmorum were 0% and 17%, respectively.
In the same order, the values of `C#Cc1cnc(/C(C)=N/OCc2c(C)cccc2/C(=N\OC)C(=O)NC)s1` [Example 61] are 19% and 11%.
Regarding `CO/N=C(/C(=O)OC)c1cccc(C)c1CO/N=C(\C)c1cscn1` [Example 126], in the assay on Phytophthora infestans, the activity at 31 ppm came to 0%.
The compound `CO/N=C(/C(=O)OC)c1cccc(C)c1CO/N=C(\C)c1cc(-c2ccc(F)cc2)on1` [Example 14] had an activity at 31 ppm in the assay with Fusarium culmorum of 20%.
As to `CNC(=O)/C(=N/OC)c1cccc(C)c1CO/N=C(\C)c1cnc(C(F)(F)F)cn1` [Example 97, (2E)-2-methoxyimino-N-methyl-2-[3-methyl-2-[[(E)-1-[5-(trifluoromethyl)pyrazin-2-yl]ethylideneamino]oxymethyl]phenyl]acetamide], the activity at 31 ppm turned out to be 0% with Phytophthora infestans and 17% in the assay on Fusarium culmorum.
In the assay on Fusarium culmorum, `C=Cc1cnc(/C(C)=N/OCc2c(C)cccc2/C(=N\OC)C(=O)NC)s1` [Example 144] returned an activity at 31 ppm of 14%.
Still for that read-out and setting: the figure for `CNC(=O)/C(=N/OC)c1cccc(C)c1CO/N=C(\C)c1nc(C(F)(F)F)cs1` [Example 95] is 17%.
As for `CNC(=O)/C(=N/OC)c1cccc(C)c1CO/N=C(\C)c1cccc(F)n1` [Example 107], the activity at 31 ppm in the assay on Phytophthora infestans was found to be 0%; with Fusarium culmorum it was 16%.
Turning to `CNC(=O)/C(=N/OC)c1cccc(C)c1CO/N=C(\C)c1cc(N2CC(F)(F)C2)ccn1` [Example 90], in the assay on Phytophthora infestans, the activity at 31 ppm came to 0%.
In the case of `CNC(=O)/C(=N/OC)c1cccc(C)c1CO/N=C(\C)c1cc(-c2cccc(C(F)(F)F)c2)sn1` [Example 39], the activity at 31 ppm in the assay on Phytophthora infestans turned out to be 8%; in the assay with Fusarium culmorum it was 14%.
For `CNC(=O)/C(=N/OC)c1cccc(C)c1CO/N=C(\C)c1cccc(C)n1` [Example 81] the same measures were 0% and 9%.
As to `CO/N=C(/C(=O)OC)c1cccc(C)c1CO/N=C(\C)c1ccccn1` [Example 129], the activity at 31 ppm in the assay with Phytophthora infestans stood at 0%.
As for `CO/N=C(/C(=O)OC)c1cccc(C)c1CO/N=C(\C)c1cc(-c2ccccc2)sn1` [Example 36], in the assay on Phytophthora infestans, the activity at 31 ppm worked out at 10%.
For the compound `CO/N=C(/C(=O)OC)c1cccc(C)c1CO/N=C(\C)c1ncc(-c2ccc(F)cc2)s1` [Example 79, Methyl (2E)-2-[2-[[(E)-1-[5-(4-fluorophenyl)thiazol-2-yl]ethylideneamino]oxymethyl]-3-methyl-phenyl]-2-methoxyimino-acetate], the activity at 31 ppm in the assay on Phytophthora infestans worked out at 17%; in the assay with Fusarium culmorum, 13%.
`CO/N=C(/C(=O)OC)c1cccc(C)c1CO/N=C(\C)c1cc(-c2ccc(Cl)cc2)on1` [Example 18] returned an activity at 31 ppm in the assay on Fusarium culmorum of 16%.
In the case of `CO/N=C(/C(=O)OC)c1cccc(C)c1CO/N=C(\C)c1cc(C(F)(F)F)cc(Cl)n1` [Example 42], the activity at 31 ppm in the assay on Fusarium culmorum stood at 10%.
On to `CNC(=O)/C(=N/OC)c1cccc(C)c1CO/N=C(\C)c1cc(C#N)cc(Cl)n1` [Example 63], for which the figures for the activity at 31 ppm in the assay on Phytophthora infestans and in the assay with Fusarium culmorum were 0% and 18%, respectively.
For `CNC(=O)/C(=N/OC)c1cccc(C)c1CO/N=C(\C)c1csc(C(F)(F)F)n1` [Example 115] the same measures were 0% and 13%.
For `CNC(=O)/C(=N/OC)c1cccc(C)c1CO/N=C(\C)c1ncc(-c2ccc(F)cc2)s1` [Example 78, (2E)-2-[2-[[(E)-1-[5-(4-fluorophenyl)thiazol-2-yl]ethylideneamino]oxymethyl]-3-methyl-phenyl]-2-methoxyimino-N-methyl-acetamide], the values for the activity at 31 ppm in the assay on Phytophthora infestans and in the assay with Fusarium culmorum were 3% and 16%, respectively.
The compound `CNC(=O)/C(=N/OC)c1cccc(C)c1CO/N=C(\C)c1cn(C)nc1C(F)(F)F` [Example 52] yielded an activity at 31 ppm in the assay with Fusarium culmorum of 12%.
Turning to `CNC(=O)/C(=N/OC)c1cccc(C)c1CO/N=C(\C)c1ccncc1` [Example 134], the values for the activity at 31 ppm in the assay with Phytophthora infestans and in the assay on Fusarium culmorum were 0% and 20%, respectively.
Consider `CO/N=C(/C(=O)OC)c1cccc(C)c1CO/N=C(\C)c1ccncc1` [Example 130], for which the activity at 31 ppm came to 0% in the assay with Phytophthora infestans and 17% in the assay with Fusarium culmorum.
Turning to `CNC(=O)/C(=N/OC)c1cccc(C)c1CO/N=C(/c1nccs1)C(F)F` [Example 154], the activity at 31 ppm in the assay on Fusarium culmorum was determined as 14%.
On to `CNC(=O)/C(=N/OC)c1cccc(C)c1CO/N=C(\C)c1cc(C(F)F)nc(C)n1` [Example 62], for which the activity at 31 ppm in the assay on Phytophthora infestans was 0%; in the assay with Fusarium culmorum, 11%.
In the same order, the values of `CNC(=O)/C(=N/OC)c1cccc(C)c1CO/N=C(\C)c1cc(C(F)(F)F)cc(C#N)n1` [Example 86] are 0% and 16%.
Take `CNC(=O)/C(=N/OC)c1cccc(C)c1CO/N=C(\C)c1ncccc1F` [Example 77]: the activity at 31 ppm is 0% in the assay on Phytophthora infestans and 11% with Fusarium culmorum.
Take `CO/N=C(/C(=O)OC)c1cccc(C)c1CO/N=C(\C)c1ccc(Cl)c(C(F)(F)F)c1` [Example 82]: the activity at 31 ppm with Phytophthora infestans is 3%; in the assay with Fusarium culmorum, 17%.
For `CNC(=O)/C(=N/OC)c1cccc(C)c1CO/N=C(\C)c1cccnc1` [Example 135] the same measures were 0% and 19%.
For `CNC(=O)/C(=N/OC)c1cccc(C)c1CO/N=C(\C)c1ccc(C#CC2CC2)nc1` [Example 69], the activity at 31 ppm with Phytophthora infestans is 0%; in the assay with Fusarium culmorum it was 11%.
Consider `CNC(=O)/C(=N/OC)c1cccc(C)c1CO/N=C(\C)c1cncc(C(F)(F)F)c1` [Example 85, (2E)-2-methoxyimino-N-methyl-2-[3-methyl-2-[[(E)-1-[5-(trifluoromethyl)-3-pyridyl]-ethylideneamino]oxymethyl]phenyl]acetamide], for which the activity at 31 ppm amounted to 0% with Phytophthora infestans and 16% in the assay on Fusarium culmorum.
Consider `CNC(=O)/C(=N/OC)c1cccc(C)c1CO/N=C(\C)c1cscn1` [Example 127], for which the activity at 31 ppm in the assay on Phytophthora infestans was 0%.
Take `CNC(=O)/C(=N/OC)c1cccc(C)c1CO/N=C(\C)c1cc(C(F)(F)F)cc(C)n1` [Example 80]: the activity at 31 ppm in the assay with Phytophthora infestans was 0%; with Fusarium culmorum, 16%.
For `CNC(=O)/C(=N/OC)c1cccc(C)c1CO/N=C(\C)c1cncc(F)c1` [Example 76] the same measures were 0% and 16%.
`CNC(=O)/C(=N/OC)c1cccc(C)c1CO/N=C(\C)c1ccnc(C(F)(F)F)c1` [Example 48]: the activity at 31 ppm was found to be 1% in the assay with Phytophthora infestans and 17% with Fusarium culmorum.
As for `CO/N=C(/C(=O)OC)c1cccc(C)c1CO/N=C(\C)c1ccc(C#CC2CC2)cn1` [Example 111], the activity at 31 ppm in the assay on Phytophthora infestans was found to be 15%.
`CNC(=O)/C(=N/OC)c1cccc(C)c1CO/N=C(\C)c1cc(-c2ccc(F)cc2)on1` [Example 15]: the activity at 31 ppm in the assay on Phytophthora infestans was 0%; in the assay on Fusarium culmorum it was 20%.
With `CO/N=C(/C(=O)OC)c1cccc(C)c1CO/N=C(\C)c1cc(-c2ccccc2)on1` [Example 21], the activity at 31 ppm in the assay on Phytophthora infestans stood at 5%.
The compound `CO/N=C(/C(=O)OC)c1cccc(C)c1CO/N=C(\C)c1cnccc1C(F)(F)F` [Example 155] had an activity at 31 ppm in the assay on Fusarium culmorum of 18%.
